# Data: publication PMC9481563, “Structural insights into the pSer/pThr dependent regulation of the SHP2 tyrosine phosphatase in insulin and CD28 signaling” (Nature Communications, 2022)
# Molecular target: T1, inactive SHP2 catalytic domain Pocketless (K260E+R265S) (Homo sapiens, UniProt Q06124, C459S/K260E/R265S)
# T1 construct: SHP2 K260E+R265S (Pocketless); 219-528 + C459S; His6 (N); made in house; host or cells: E. coli BL21 (DE3)
# T1 sequence (Q06124 219-528 K260E/R265S/C459S): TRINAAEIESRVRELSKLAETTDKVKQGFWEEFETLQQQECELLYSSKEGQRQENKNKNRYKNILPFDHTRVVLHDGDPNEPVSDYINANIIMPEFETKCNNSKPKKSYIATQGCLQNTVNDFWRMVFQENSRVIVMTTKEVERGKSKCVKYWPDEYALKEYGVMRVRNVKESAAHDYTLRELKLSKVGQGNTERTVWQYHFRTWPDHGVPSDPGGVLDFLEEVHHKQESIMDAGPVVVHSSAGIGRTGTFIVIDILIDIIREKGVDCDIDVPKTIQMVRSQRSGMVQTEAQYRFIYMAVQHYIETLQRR
# Assay: Fluorescence polarization titrations, SHP2 Pocketless
# Assay type: binding
# Conditions: competitive FP titration vs CF-ppIRS1 100 nM, protein fixed; n = 3 technical replicates
# Text: The two SH2 domains of PI3KR1 (UniProt P27986; nSH2: 321−433 cSH2: 614–724) were cloned from HEK293T cDNA pool, and subsequently ligated into a modified pET vector encoding maltose binding protein (MBP) tag on the N-terminal and a hexa-His tag on the C-terminal end of the construct. Similarly, the catalytic, tyrosine phosphatase domains of PTPRε (P23469 first domain: 107–399) and PTP1B (P18031; 1–229) were cloned from a HEK293T cDNA pool, and inserted into a pBH4 vector encoding an N-terminal His6 tag (for the final binding experiments, an MBP-tagged version of PTPRε was employed). […] Surface mutants of SHP2 were constructed from the SHP2-C459S plasmid, using the QuickChange protocol. The D425A and H426A catalytic site mutants and all enzymatically active surface mutants were generated similarly, but from the plasmid encoding the wild-type catalytic domain of SHP2. Wild-type C-terminal FLAG-tagged human IRS1 was cloned between HindIII-NotI sites of pcDNA3.1(+) vector (#V79020 Invitrogen, Waltham MA USA). Ser/Ala mutant IRS1 was generated by replacing the region of S616/S636/S666/S736 positions with a cassette carrying S616A/S636A/S666A/S736A mutations. All constructs were validated by complete Sanger sequencing before protein expression and purification. The oligonucleotide sequences used are shown on Supplementary table 4.
# Fluorescence polarization (FP) assays were performed as follows: In direct titration experiments, protein concentration was varied in an 1/2 or 2/3 dilution series (90 µl protein+ 45 µl mix), while concentration of the reporter peptide (CF-ppIRS1) was kept constant at 100 nM. In competitive titrations, the labelled CF-ppIRS1 peptide and protein were both fixed (at 50–80% saturation) and the unlabelled competitor peptide concentration was varied. Fluorescence polarization was always measured in triplicates, on black Corning low volume round bottom 384-well plates (with 10 ul volumes), using a BioTek Cytatation 5 reader, with the green fluorescent protein (GFP) cube filter set (ex: 485/20, em: 528/20, gain: 50, height: 7.5). Fluorescence polarization data was evaluated on Origin 2018. The dissociation constants (Kd) were determined by using the appropriate quadratic and cubic equations inserted as a user-defined function and applying nonlinear fit until convergence. The fitting formulae are shown at Supplementary note 1. Kd ratio distributions for Fig. 6 were calculated using a Monte-Carlo approach (Supplementary note 2).
# Supplementary note 1. Curve fitting of fluorescence polarization (FP) measurements.
# To evaluate polarization values from direct and competitive titrations, we used the following fitting formulae in Origin 2018, as detailed below.
# Direct titration curves were fitted according to the following formula: […]
# Where Imin is the minimal anisotropy, Imax is the (asymptotically estimated) maximal intensity. K0 is the starting concentration of the protein, while T0 is the (fixed) concentration of the labelled peptide and Kd is the dissociation constant.
# Competitive titration curves were fitted with a different formula (In addition to those defined above, constants KdT KdB B0 T0 and D0 here refer to the Kd derived from the direct titration, the unknown Kd of the analyte, the labelled peptide concentration, the competitor peptide concentration as well as the protein concentration, respectively).
# The ± sign refers to two different scenarios, depending on the sign of discriminant (KdT > KdB or […]). For unknown analytes, the choice of sign is not arbitrary, as the fitting will not converge unless the appropriate formula is chosen: […]
# Where A, B and C correspond to the following expressions: […]
row,Compound,Kd
1,CSCC[C@H](NC(=O)[C@H](Cc1ccc(OP(=O)(O)O)cc1)NC(=O)[C@H](CC(=O)O)NC(=O)[C@H](CO)NC(=O)[C@H](Cc1c[nH]cn1)NC(=O)[C@H](CC(C)C)NC(=O)[C@H](CC(C)C)NC(=O)[C@H](CCCNC(=N)N)NC(=O)[C@H](CO)NC(=O)[C@@H](N)CCCNC(=N)N)C(=O)N[C@@H](CC(N)=O)C(=O)N[C@@H](CCSC)C(=O)N[C@H](C(=O)N1CCC[C@H]1C(=O)N[C@@H](CCCNC(=N)N)C(=O)N[C@@H](CCCNC(=N)N)C(=O)O)[C@@H](C)O [p0CD28],34.8 ± 2.25 µM
2,CSCC[C@H](NC(=O)[C@@H]1CCCN1C(=O)[C@H](CCSC)NC(=O)[C@H](Cc1ccc(OP(=O)(O)O)cc1)NC(=O)[C@H](CC(=O)O)NC(=O)CNC(=O)[C@H](CO)NC(=O)CNC(=O)[C@H](CCCCN)NC(=O)[C@H](CCCNC(=N)N)NC(=O)CN)C(=O)N[C@@H](CO)C(=O)N1CCC[C@H]1C(=O)N[C@@H](CCCCN)C(=O)N[C@@H](CO)C(=O)O [p0IRS1],191 ± 15.5 µM
3,CC[C@H](C)[C@H](NC(=O)[C@H](CC(N)=O)NC(=O)[C@@H](NC(=O)[C@H](Cc1ccc(OP(=O)(O)O)cc1)NC(=O)[C@H](CCC(=O)O)NC(=O)CNC(=O)[C@@H]1CCCN1C(=O)[C@H](CO)NC(=O)[C@H](CCCCN)NC(=O)[C@@H]1CCCN1C(=O)[C@@H](N)CCC(=O)O)C(C)C)C(=O)N[C@@H](CCC(=O)O)C(=O)N[C@@H](Cc1ccccc1)C(=O)O [p0SRev-IRS1],17.7 ± 2.13 µM
4,CSCC[C@H](NC(=O)[C@H](Cc1ccc(OP(=O)(O)O)cc1)NC(=O)[C@H](CC(=O)O)NC(=O)[C@H](CO)NC(=O)[C@H](Cc1c[nH]cn1)NC(=O)[C@H](CC(C)C)NC(=O)[C@H](CC(C)C)NC(=O)[C@H](CCCNC(=N)N)NC(=O)[C@H](CO)NC(=O)[C@@H](N)CCCNC(=N)N)C(=O)N[C@@H](CC(N)=O)C(=O)N[C@@H](CCSC)C(=O)N[C@H](C(=O)N1CCC[C@H]1C(=O)N[C@@H](CCCNC(=N)N)C(=O)N[C@@H](CCCNC(=N)N)C(=O)O)[C@@H](C)OP(=O)(O)O [ppCD28],5.63 ± 0.29 µM
5,CSCC[C@H](NC(=O)[C@@H]1CCCN1C(=O)[C@H](CCSC)NC(=O)[C@H](Cc1ccc(OP(=O)(O)O)cc1)NC(=O)[C@H](CC(=O)O)NC(=O)CNC(=O)[C@H](CO)NC(=O)CNC(=O)[C@H](CCCCN)NC(=O)[C@H](CCCNC(=N)N)NC(=O)CN)C(=O)N[C@@H](COP(=O)(O)O)C(=O)N1CCC[C@H]1C(=O)N[C@@H](CCCCN)C(=O)N[C@@H](CO)C(=O)O [ppIRS1],6.36 ± 0.28 µM
6,CC[C@H](C)[C@H](NC(=O)[C@H](CC(N)=O)NC(=O)[C@@H](NC(=O)[C@H](Cc1ccc(OP(=O)(O)O)cc1)NC(=O)[C@H](CCC(=O)O)NC(=O)CNC(=O)[C@@H]1CCCN1C(=O)[C@H](COP(=O)(O)O)NC(=O)[C@H](CCCCN)NC(=O)[C@@H]1CCCN1C(=O)[C@@H](N)CCC(=O)O)C(C)C)C(=O)N[C@@H](CCC(=O)O)C(=O)N[C@@H](Cc1ccccc1)C(=O)O [ppSRev-IRS1],1.91 ± 0.2 µM
